Results: US6605469B1, “Nucleic acid molecule encoding a cytochrome P-450 hydroxylase in brassinosteroid biosynthesis in plants” (Korea Kumho Petrochemical Co., Ltd., priority 2000, dated 2003)

Key:
[1] = test system: anti-sense pra2 transgenic plants; experiment: Complementation of dark-grown anti-sense pra2 transgenic plants with phytohormones and BR intermediates (hypocotyl length); format: in vivo, Nicotiana tabacum; conditions: for stimulatory effect on hypocotyls as % of the BL effect / rescue of the dwarfish hypocotyls in BR feeding experiment: anti-sense pra2 transgenic plants grown 5 days in complete darkness; for stimulatory effect on hypocotyls as % of the BL effect: 6-OHCS 10^-8 M, 6-deoxoCS 10^-8 M; for rescue of the dwarfish hypocotyls in BR feeding experiment: CS 10^-8 M
Procedure: Seeds of Nicotiana tabacum (Petit Havana SR1) were germinated and grown in sterile condition at 25° C. with a 16-hour photoperiod. The Arabidopsis thaliana ecotype Columbia (Col-0) was germinated and grown on 0.5×Murashige and Skoog medium containing 1% agar and Suc. All Arabidopsis cultures were maintained in a controlled environment culture room at 22° C. with the humidity of 70% and the photoperiod of 12 hours. Feeding experiments were also performed in the same culture conditions.
Plant growth regulators tested were BR, GA, auxin, cytokinine, abscisic acid, and salicylic acid. The BR hormones included the most oxidized brassinolide (BL, 10^−8 M) and various intermediates, such as campestanol (CN, 10^−6 M), 6-oxocampestanol (6-oxoCN, 10^−6 M), 6-deoxocathasterone (6-deoxoCT, 10^−6 M), cathasterone (CT, 10^−6 M), 6-deoxoteasterone (6-deoxoTE, 10^−6 M), teasterone (TE, 10^−6 M), 6-deoxotyphasterol (6-deoxoTY, 10^−7 M), typhasterol (TY, 10^−7 M), 6-deoxocastasterone (6-deoxoCS, 10^−8 M), 6α-hydroxycastasterone (6-OHCS, 10^−8 M), and castasterone (CS, 10^−8 M). Each BR intermediates were used at the concentrations as indicated in parentheses. […] Plants were germinated and grown in the presence of each BR intermediate for 4-7 days either in the light or in complete darkness. Hypocotyl lengths of 30-50 plants in each treatment were measured and averaged.

[2] = test system: DDWF1; experiment: Substrate specificity of recombinant DDWF1 with BR intermediates, HPLC analysis; format: biochemical, pea; conditions: reaction mixtures analyzed on HPLC
Procedure: For HPLC analysis, BR intermediates were incubated with the DDWF1 as with testosterone, and the mixture was analyzed on the Waters 626 LC System and Photodiode Array Detector (Waters, Milford, Mass.). The reverse-phase Supelcosil LC-18 (250×4.6 mm, Supelco, Pa., USA) was used at a flow rate of 2 ml/min. The solvents used were 45% acetonitrile for the first 20 min, a gradient of 45% to 100% for the next 20 min, and pure acetonitrile for the last 10 min.

[3] = test system: DDWF1; experiment: DDWF1 activity assay with [4-14C]testosterone, TLC analysis; format: biochemical, pea; conditions: N-terminal truncated recombinant DDWF1
Procedure: Forty μl of the [4-^14C]testosterone (Amersham-Pharmacia, Cat. No. CFA129, 193 μCi/mg) was aliquoted, and the solvent was evaporated under gentle stream of N2 gas. Yeast microsomal fractions were prepared as described (Pompon et al., 1996). Thirty μg of microsomal fraction, 5 μg of Pra2 protein, and various amounts of the recombinant DDWF1 were used for each reaction, each with 175 μl of the reaction buffer (1M HEPES, pH 7.4, 0.1 mM EDTA, 0.5 mM GTP, 10 mM MgCl2). The mixture was transferred to the tube containing the lyophilized testosterone and incubated for 10 min at 37° C. Twenty-five μl of NADPH solution, prepared in the same reaction buffer, was then added to the mixture to a final concentration of 1 mM. The total mixture was further incubated for 30 min at 37° C. and terminated by adding 1 ml of ethyl acetate and vortexing for 30 sec. After centrifugation for 4 min at 15000×g, the upper layer was recovered and evaporated in chemical hood overnight. The dry pellet was dissolved in 20 μl of ethyl acetate, spotted on TLC on Silicagel 60 F254 (20×20 cm, Merck, Darmstadt, Germany), and developed in dichloromethane/acetone (4:1 by volume) and then in chloroform/ethyl acetate/ethanol (4:1:0.7 by volume) as described (Waxman, 1991).

[4] = biological target: Q79L Pra2-GST fusion protein (constitutively active form) [GST: P08515]
[5] = biological target: T34N Pra2-GST fusion protein (dominant negative form) [GST: P08515]
[6] = biological target: wild type Pra2-GST fusion protein [GST: P08515]

CC(C)[C@H](C)[C@@H](O)[C@H](O)[C@@H](C)[C@H]1CC[C@H]2[C@@H]3C[C@H](O)[C@H]4C[C@H](O)[C@H](O)C[C@]4(C)[C@H]3CC[C@]12C [6-OHCS, 6α-hydroxycastasterone]
stimulatory effect on hypocotyls as % of the BL effect [1]: about 50%

gibberellins [GA]
stimulatory effect on hypocotyls relative to that by BL ([1]; anti-sense pra2 transgenic tobacco grown in the dark, phytohormones at physiological concentrations): 20-30%

CC(C)[C@H](C)[C@@H](O)[C@H](O)[C@@H](C)[C@H]1CC[C@H]2[C@@H]3CC[C@H]4C[C@H](O)[C@H](O)C[C@]4(C)[C@H]3CC[C@]12C [6-deoxoCS, 6-deoxocastasterone]
stimulatory effect on hypocotyls as % of the BL effect [1]: ~60%

CC(C)[C@H](C)[C@@H](O)[C@H](O)[C@@H](C)[C@H]1CC[C@H]2[C@@H]3CC(=O)[C@H]4C[C@H](O)[C@H](O)C[C@]4(C)[C@H]3CC[C@]12C [CS, castasterone]
rescue of the dwarfish hypocotyls in BR feeding experiment ([1]; BL 10^-8 M): completely rescued
conversion by recombinant DDWF1 (substrate specificity) [2]: not the substrate

CC(C)[C@H](C)[C@@H](O)[C@H](O)[C@@H](C)[C@H]1CC[C@H]2[C@@H]3COC(=O)[C@H]4C[C@H](O)[C@H](O)C[C@]4(C)[C@H]3CC[C@]12C [BL, brassinolide]
rescue of the dwarfish hypocotyls in BR feeding experiment ([1]; BL 10^-8 M): completely rescued
rescue of the dark-specific dwarfish hypocotyls ([1]; anti-sense pra2 transgenic tobacco grown in the dark, phytohormones at physiological concentrations, BL 10^-8 M): completely rescued
growth kinetics of transgenic versus control seedlings in the presence of BL ([1]; dark-grown seedlings, hypocotyl length over time, FIG. 4C): became similar
BL effect on transgenic plants grown in the light ([1]; transgenic plants grown in the light): No BL effects

C[C@]12CC[C@H]3[C@@H](CCC4=CC(=O)CC[C@@]43C)[C@@H]1CC[C@@H]2O [Testosterone]
substrate for DDWF1 [3]: not the substrate

CC(C)[C@H](C)[C@@H](O)[C@H](O)[C@@H](C)[C@H]1CC[C@H]2[C@@H]3CC(=O)[C@H]4C[C@H](O)CC[C@]4(C)[C@H]3CC[C@]12C [TY, typhasterol]
conversion by recombinant DDWF1 (substrate specificity) [2]: converted to CS

B1: recombinant N-terminal truncated DDWF1, soluble form expressed in E. coli (protein)
chain: MALQVLTLPSWVTLFTTFAILLLFSRRLRRRQYNLPPGPKPWPIIGNFNLIGTLPHQSLHGLTQKYGPIMHLWFGSKRVVVGSTVEMAKAFLKTHDATLAGRPKFSAGKYTTYNYSDITWSQYGPYWRQARRMCLLELFSAKRLESYEYIRKQELHVFLHELFDSRNKTILLKDHLSSLSLNVISRMVLGRKYLEKVENSIISPDEFKNMLDELFLLNGILNIGDFIPWIHFLDFQGYVKRMKVLSKKFDGFMEHVLEEHIERRKGVKDYVAKDMVDVLLQLAEDPDLEVKLERHGVKAFTQDLIAGGTESSAVTVEWAISELIRKPEIFKKATEELDRVIGRERWVEEKDIANLPYVYAIAKETMRLHPVAPMLVPREAREDCNINGYDIPKGSLILVNTWTIARDSNVWDNPNEFMPERFLGKDIDVKGHDYELLPFGAGRRMCPGYPLGIKVIQSSLANLLHGFNWRLSDDVKKEDLNMEEIFGLSTPKKIHPG
conversion efficiency (DDWF1 hydroxylase activity on a testosterone intermediate, TLC) [4]: the conversion efficiency was slightly higher with the wild type and Q79L than with the T34N
conversion efficiency (DDWF1 hydroxylase activity on a testosterone intermediate, TLC) [5]: the conversion efficiency was slightly higher with the wild type and Q79L than with the T34N
conversion efficiency (DDWF1 hydroxylase activity on a testosterone intermediate, TLC) [6]: the conversion efficiency was slightly higher with the wild type and Q79L than with the T34N
